Data published in PMC6382862 (Scientific Reports, 2019).
Where “and” joins values, the source holds several entries; their conditions need not be identical. Equal values may be shown once.

What was measured:
PCSK9/LDLR PPI = conditions: read-out: IC50 of PCSK9/LDLR PPI inhibition; cited from earlier work
Text: Recently, innovative technological solutions for controlling peptide metabolism and advanced administration strategies[14]–[16] have renewed the interest for novel inhibitory peptides. […] Another study, carried out by us, has identified two peptides able to inhibit the PCSK9/LDLR PPI[11]: they derive from the hydrolysis of lupin protein and have the following sequences, […] (P5) and […] (T9).

PCSK9 = system: PCSK9; set-up: method as in PMID 28825733; conditions: lower affinity than Pep2-8, still detectable by SPR; cited from earlier work
HepG2 cells = assay: Fluorescent LDL uptake cell based assay in PCSK9-treated HepG2 cells; set-up: species or system human; conditions: for Times more active than Pep2-8 in restoring LDL uptake: compared with 50 µM Pep2-8; for LDL-uptake restored (versus untreated cells): then LDL-DyLight 550 2 h, PCSK9 alone reduced uptake by 32.7%, mean of three independent experiments
Method: (§1) The HepG2 cell line was cultured in DMEM high glucose with stable L-glutamine supplemented with 10% FBS, 100 U/mL penicillin, 100.0 µg/mL streptomycin and incubated at 37 °C under 5% CO2 atmosphere. HepG2 cells were used for no more than 20 passages after thawing, because the increase of the number of passages may change the cell characteristics and impair assay results.
HepG2 cells (3.0 × 10^4/well) were seeded in black 96-well plates and kept in complete growth medium for 2 d before treatment. The third day, they were treated with 4.0 μg/mL PCSK9 and 4.0 μg/mL PCSK9 + peptides (0.5-50.0 µM), and vehicle (H2O) for 2 h with at 37 °C under 5% CO2 atmosphere. At the end of the treatments, the culture medium was replaced with 50.0 μl/well LDL-DyLight™ 550 working solution (Cayman Chemical Company, Ann Arbor, MI, US). The cells were additionally incubated for 2 h at 37 °C and then the culture medium was aspirated and replaced with PBS (100.0 μl/well). The degree of LDL uptake was measured using the Synergy H1 fluorescent plate reader from Biotek (excitation and emission wavelengths 540 and 570 nm, respectively).

[1] = system: LDLR protein level on HepG2 cell surface; assay: In cell western (ICW) assay of LDLR protein level on HepG2 cell surface in presence of PCSK9; format: cell-based, human; conditions: PCSK9 alone decreased LDLR by 37.62%, mean of three independent experiments
Method: This reliable technique was used to investigate the effects of the mutated peptides on the modulation of the LDLR protein levels localized on the HepG2 cell surface. Taking this into consideration, to evaluate only the LDLR surface levels no permeabilization step was included in the applied procedure.
as §1
A total of 3.0 × 10^4 HepG2 cells/well were seeded in 96-well plates, respectively. The following day, cells were washed with PBS and then starved overnight (O/N) in DMEM without FBS.
Treated HepG2 cells were fixed in 4% paraformaldehyde for 20 min at room temperature (RT). Cells were washed 5 times with 100.0 µL of PBS/well (each wash was for 5 min at RT) and the endogenous peroxides activity was quenched adding 3% H2O2 in PBS for 20 min at RT. Non-specific sites were blocked with 100.0 µL/well of 5% BSA in PBS for 1.5 h at RT. LDLR primary antibody solution (1:3000 in 5% BSA in PBS, 25 µL/well) was incubated O/N at 4 °C. Subsequently, the primary antibody solution was discarded and each sample was washed 5 times with 100.0 µL/well of PBS (each wash was for 5 min at RT). Goat anti-rabbit Ig-HRP secondary antibody solution (1:6000 in 5% BSA in PBS, 50.0 µL/well) was added and incubated for 1 h at RT. The secondary antibody solution was washed 5 times with 100.0 µL/well of PBS (each wash for 5 min at RT). Freshly prepared TMB substrate (100.0 µL/well), was added and the plate was incubated at room temperature (RT) until desired color was developed. The reaction was then stopped with 2 M H2SO4 and the absorbance at 450 nm was measured using the Synergy H1 fluorescent plate reader from Biotek. Cells were stained by adding 1 × Janus green stain, incubating for 5 min at RT. The dye was removed and the sample washed 5 times with water. Afterward 0.1 mL 0.5 M HCl per well were added and incubated for 10 min. After 10 sec shaking, the OD at 595 nm was measured using the Synergy H1 fluorescent plate reader from Biotek.

[2] = biological target: T1, PCSK9/LDLR PPI (His-tagged PCSK9, recombinant LDLR-AB domain) (Homo sapiens, UniProt Q8NBP7); assay: In vitro PCSK9-LDLR binding assay (CycLex); conditions: peptide 100 µM; absorbance 450 nm; three independent experiments in duplicate
T1 construct: purchased CycLex Co., Nagano, Japan
Method: Biochemical experiments, based on a PCSK9-LDLR binding assay, were performed in order to compare the ability of each derivative to impair the PPI between PCSK9 and LDLR. […] Initially, in agreement with recently published conditions[27], a preliminary screening was performed at the fixed concentration of 100 µM.
The absorbance at 450 nm was measured using the Synergy H1 fluorescent plate reader (Biotek, Bad Friedrichshall, Germany).

[3] = system: cell surface LDLR, HepG2 cells; conditions: cited from earlier work
Method: It is useful to underline, that in our case the cells were treated with a lower PCSK9 concentration (4 μg/mL) and for a shorter time (2 h) in respect to the conditions applied by Zhang and co-w ... || In a recent study, Zhang and co-workers[18] have developed new antagonists. […] In particular, in presence of PCSK9, Fusion 1 peptid ...

[4] = biological target: T2, recombinant His-tagged PCSK9 protein (proprotein convertase subtilisin/kexin type 9) (UniProt Q8NBP7 31-692); assay: ELISA; CycLex in vitro PCSK9-LDLR binding assay (colorimetric semi-quantitative solid phase binding assay); wells coated with recombinant LDLR-AB domain; His-tagged PCSK9 added with peptide (1.0-300.0 uM; first screen at 100 uM); bound His-tagged PCSK9 read as absorbance at 450 nm; competition; conditions: both partners purified
T2 construct: Proprotein convertase subtilisin/kexin type 9 (PCSK9), recombinant, of the CycLex kit; the functional rows use this molecule; also called PCSK9-WT

[5] = peptide 0.5 µM + 4.0 µg/mL PCSK9, 2 h
[6] = peptide 1.0 µM + 4.0 µg/mL PCSK9, 2 h
[7] = peptide 0.5 µM + 4 µg/mL PCSK9, 2 h
[8] = peptide 1 µM + 4 µg/mL PCSK9, 2 h

T2 sequence (Q8NBP7 31-692): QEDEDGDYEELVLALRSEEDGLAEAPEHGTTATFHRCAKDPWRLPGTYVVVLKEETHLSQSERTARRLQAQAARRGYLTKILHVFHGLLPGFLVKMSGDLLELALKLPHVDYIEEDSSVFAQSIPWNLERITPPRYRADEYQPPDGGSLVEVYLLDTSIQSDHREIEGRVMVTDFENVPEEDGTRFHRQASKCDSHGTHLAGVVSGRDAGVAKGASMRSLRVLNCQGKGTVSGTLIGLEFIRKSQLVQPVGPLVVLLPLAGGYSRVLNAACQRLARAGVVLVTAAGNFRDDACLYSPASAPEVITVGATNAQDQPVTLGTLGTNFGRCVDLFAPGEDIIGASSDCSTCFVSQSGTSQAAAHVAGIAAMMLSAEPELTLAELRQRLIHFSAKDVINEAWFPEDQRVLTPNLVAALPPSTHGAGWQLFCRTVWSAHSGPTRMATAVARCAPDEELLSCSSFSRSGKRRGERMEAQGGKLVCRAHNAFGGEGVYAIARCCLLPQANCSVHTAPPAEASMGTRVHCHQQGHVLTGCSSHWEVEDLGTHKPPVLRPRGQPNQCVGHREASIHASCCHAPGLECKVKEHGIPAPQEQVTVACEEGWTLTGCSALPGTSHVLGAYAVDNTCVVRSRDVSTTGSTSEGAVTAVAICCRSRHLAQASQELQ
T1 sequence (Q8NBP7 153-692): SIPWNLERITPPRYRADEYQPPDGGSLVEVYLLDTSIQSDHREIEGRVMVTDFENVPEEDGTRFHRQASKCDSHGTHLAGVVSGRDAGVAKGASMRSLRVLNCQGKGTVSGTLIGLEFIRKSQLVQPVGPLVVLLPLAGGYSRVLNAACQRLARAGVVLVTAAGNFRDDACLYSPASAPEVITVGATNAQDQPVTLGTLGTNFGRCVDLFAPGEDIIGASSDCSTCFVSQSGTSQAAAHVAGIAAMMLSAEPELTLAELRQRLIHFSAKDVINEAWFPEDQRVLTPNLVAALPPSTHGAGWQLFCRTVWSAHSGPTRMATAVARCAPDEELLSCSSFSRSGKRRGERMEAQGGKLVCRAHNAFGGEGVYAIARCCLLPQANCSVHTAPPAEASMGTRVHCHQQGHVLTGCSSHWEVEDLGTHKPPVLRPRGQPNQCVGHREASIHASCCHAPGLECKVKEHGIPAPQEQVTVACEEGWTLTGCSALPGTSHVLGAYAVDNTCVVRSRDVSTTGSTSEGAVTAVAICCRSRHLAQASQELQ
T1 sequence (Q8NBP7 31-152 partner limits assumed): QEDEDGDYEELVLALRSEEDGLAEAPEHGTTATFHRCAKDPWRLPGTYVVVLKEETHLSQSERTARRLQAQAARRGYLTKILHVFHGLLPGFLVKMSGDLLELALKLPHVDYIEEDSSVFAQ

LILPKHSDAD [Peptide P5]
IC50 (PCSK9/LDLR PPI): 1.6 µM

Ac-TAFTSWEEYLDWV-NH2 [[V2A]Pep2-8, alanine single-point mutant of Pep2-8, computational only]
Affinity on PCSK9 (PCSK9): low affinity

Ac-TVFRSWEEYLDYV-NH2 [[T4R,W12Y]Pep2-8]
Times more active than Pep2-8 in restoring LDL uptake (HepG2 cells): ~5 fold | LDL-uptake restored (versus untreated cells) (HepG2 cells; [5]): 81.6% | LDL-uptake restored (versus untreated cells) (HepG2 cells; [6]): 88.0% | LDL-uptake restored (versus untreated cells) (HepG2 cells; peptide 10.0 µM + 4.0 µg/mL PCSK9, 2 h): 92.5% | LDLR protein level restored (versus control cells) [1, 7]: 68.1% | LDLR protein level restored (versus control cells) [1, 8]: 75.3% | LDLR protein level restored (versus control cells) ([1]; peptide 10.0 µM + 4 µg/mL PCSK9, 2 h): 88.3% | Impairment of PCSK9-LDLR binding versus control [2]: −93.0%

TVFTSWEEYLDWV-GSC- CRLPWNLQRIGLPG [Fusion 1 peptide]
LDLR restored in presence of PCSK9 ([3]; HepG2 cells, 5.0 µM (tested 0.1 to 5.0 µM)): 90% | Fold more potent than reference peptide Pep2-8 in preventing PCSK9-mediated cell surface LDLR degradation ([3]; HepG2 cells): about 20 fold

Ac-TVFTSWEEALDWV-NH2 [[Y9A]Pep2-8]
Times more active than Pep2-8 in restoring LDL uptake (HepG2 cells): about 50 fold | LDL-uptake restored (versus untreated cells) (HepG2 cells; [5]): 83.4% | LDL-uptake restored (versus untreated cells) (HepG2 cells; [6]): 99.0% | LDLR protein level restored (versus control cells) [1, 7]: 81.9% | LDLR protein level restored (versus control cells) [1, 8]: 89.9% | Impairment of PCSK9-LDLR binding versus control [2]: −69.8%

Ac-TVFTSWEEYLDWV-NH 2 [Pep2-8, reference compound]
LDL-uptake restored (versus untreated cells) (HepG2 cells; peptide 50 µM + 4.0 µg/mL PCSK9, 2 h): 98.9% | LDLR protein level restored (versus control cells) ([1]; peptide 50 µM + 4 µg/mL PCSK9, 2 h): 83.36% and 83.4% | Surface LDLR levels renewed ([3]; FACS, 50 μM peptide, 4 h co-incubation with 15 μg/mL PCSK9, ref Zhang and co-workers): about 70%

B1: [Y9A]Pep2-8 (Ac-TVFTSWEEALDWV-NH2) (peptide)
peptide: Ac-TVFTSWEEALDWV-NH2
notes: analog of Pep2-8 with Y9A, designed by computation; source: synthetic peptide (bought: PRIMM Biotech / GenScript, >95% purity)
IC50 [4]: 27.1 µM | percent change of PCSK9-LDLR binding at 100 µM peptide versus the control [4]: -69.8%

B2: [T4R,W12Y]Pep2-8 (Ac-TVFRSWEEYLDYV-NH2) (peptide)
peptide: Ac-TVFRSWEEYLDYV-NH2
notes: analog of Pep2-8 with T4R and W12Y, designed by computation; source: synthetic peptide (bought: PRIMM Biotech / GenScript, >95% purity)
IC50 [4]: 14.5 µM | percent change of PCSK9-LDLR binding at 100 µM peptide versus the control [4]: -93%
